Tests used:
[1] = tested on: TNF-α release from LPS stimulated PEC cells; experiment: TNF-α release from LPS stimulated PEC macrophages (ELISA); type: cell-based, murine; conditions: Mus musculus, Macrophage
Method: Murine peritoneal exudate cell macrophages (PEC) were isolated by perfusion of mouse peritoneum and plated into 96-well trays at 5×10^5 cells per well. […] At various times thereafter, supernatants were removed and levels of either TNF-α or IL-1α were assayed using commercial 96-well microtiter immunoassay kits (Genzyme; TNF; Endogen, Boston, Mass.; IL-1α) according to manufacturer's specifications. […] 4000 cells were plated into each well of a 96-well microtiter plate and allowed to incubate for 72 hrs at 37° C. […] Either the HUVEC or U937 cells were stimulated with either LPS, IL-1α or TNF-α for 12 hrs. For the adhesion assay, U937 cells were labeled with the fluorescent viability stain, 2',7'-bis-(2-carboxyethyl)-5-(and-6)-carboxyfluorescein acetoxymethyl ester (BCECF). […] The cells were washed once with full media and 50,000 cells/well added to the HUVEC cultures. The samples were incubated at 37° C. for 30 min, inverted and centrifuged for 10 min at 400× g. After addition of […] Hanks Balanced Salt Solution (HBSS), the microtiter plate was then analyzed on a Millipore Cytofluor fluorescent plate reader (excitation 488 nm; emission 525 nm).
Cells were pretreated with […] CT1501R and supernatants assayed by ELISA for released TNF-α as a function of time following LPS stimulation. […]

stromelysin/PUMP-1 = experiment: PUMP-1 activity induced by IL-1; type: cell-based; conditions: induced by 100 U/ml of IL-1
Source text: Metalloproteases mediate tissue damage such as glomerular diseases of the kidney, joint destruction in arthritis, and lung destruction in emphysema, and play a role in tumor metastases. Three examples of metalloproteases include a 92 kD type V gelatinase induced by TNF, IL-1 and PDGF plus bFGF, a 72 kD type IV collagenase that is usually constitutive and induced by TNF or IL-1, and a stromelysin/PUMP-1 induced by TNF and IL-1. The inventive compounds can inhibit TNF or IL-1 induction of the 92 kD type V gelatinase inducable metalloprotease. Moreover, CT 1501R reduced PUMP- 1 activity induced by 100 U/ml of IL-1 to 15% of its control levels. […] Accordingly, the inventive compounds prevent induction of certain metalloproteases induced by IL-1 or TNF and are not involved with constitutively produced proteases (e.g., 72 kD type IV collagenase) involved in normal tissue remodeling.

[2] = tested on: PBMC (peripheral blood mononuclear cells); experiment: two-way mixed lymphocyte reaction (MLR); type: cell-based, human; conditions: FIG. 1
Source text: Various in vitro assays can be used to measure effects of the inventive compounds to module immune activity and have antitumor activity using a variety of cellular types. For example, a mixed lymphocyte reaction (MLR) provides a valuable screening tool to determine biological activity of each inventive compound. In the MLR, PBMCs (peripheral blood mononuclear cells) are obtained by drawing whole blood from healthy volunteers in a heparinized container and diluted with an equal volume of hanks balanced salt solution (HBSS). This mixture is layered on a sucrose density gradient, such as a Ficoll-Hypaque® gradient (specific gravity 1.08), and centrifuged at 1000× g for 25 minutes at room temperature or cooler. PBMC are obtained from a band at a plasma-Ficoll interface, separated and washed at least twice in a saline solution, such as HBSS. Contaminating red cells are lysed, such as by ACK lysis for 10 min at 37° C., and the PBMCs are washed twice in HBSS. The pellet of purified PBMCs is resuspended in complete medium, such as RPMI 1640 plus 20% human inactivated serum. Proliferative response of PBMC to allogeneic stimulation is determined in a two-way MLR performed in a 96-well microtiter plate. […] At the conclusion of the incubation tritiated thymidine is added (for example, 1 μCi/well of 40 to 60 Ci/mmole) and proliferation determined by liquid scintillation counting. […]

murine B-cell = experiment: B-cell proliferation stimulated by anti-mu antibody and/or IL-4; type: cell-based; conditions: anti-mu antibody crosslinked and/or IL-4, FIG. 2
Method: A B-cell proliferation assay determines the effect of the inventive compounds on inhibiting proliferation of stimulated B-cells, stimulated by an anti-mu antibody (40 μg/ml), IL-4 or PMA (2.5 nM). Ramos B-cell tumor cells or murine splenocytes can be incubated with a stimulating agent, an inventive compound and tritiated thymidine to measure inhibition of cell proliferation caused by the stimulating agent.

Balb/C mice = experiment: 5-fluorouracil (5-FU) induced bone marrow suppression in mice; type: in vivo, mouse
Method: This example illustrates the effect of CT1501R on 5-fluorouracil (5-FU) induced bone marrow suppression in mice. We determined if CT1501R influenced the time required for hematopoietic reconstitution following cytotoxic chemotherapy in a murine model. Female Balb/C mice (VAF, Charles River Laboratories, 6-8 wks of age approximately 17.3-18.5 g) were treated with 5-FU at adose of 200 mg/kg intraperitoneally (i.p.) in experiment 1 or […] in experiment 2. CT1501R or vehicle control was given at a dose of 100 μg/kg i.p. bid starting 1 day prior to 5-FU and was continued until the last mice were sacrificed on day 13 in experiment 1 and day 15 in experiment 2. Controls included mice treated with CT1501R or vehicle without 5-FU. Mice (4 per group) were sacrificed starting 2 days after 5-FU by cardiac puncture under halothane anesthesia followed by cervical dislocation and had total white blood cell counts and differential counts performed. Platelet counts were performed using phase-contrast microscopy in duplicate. Femurs were harvested and the number of granulocyte-macrophage colony forming cells (CFU-GM) per femur were measured using a standard assay (Terry Fox Laboratories, Vancouver, British Columbia) using pokeweed mitogen spleen conditioned medium as the growth factor. Each femur was plated separately in triplicate and the mean and means for each experimental point was calculated. Standard deviations used for statistical analysis were deviations of the mean number of colonies measured for each femur.
Experiment 2 was similar to experiment 1 with the following exceptions: (1) the dose of 5-FU was decreased to 185 mg/kg; (2) daily blood draws were performed between days 10 and 15; and (3) platelet counts were performed.

## C[C@@H](O)CCCCn1c(=O)c2c(ncn2C)n(C)c1=O [CT1501R, (R)-1-(5-hydroxyhexyl)-3,7-dimethylxanthine]
[1]; LPS stimulated PEC, drug 1 hour before LPS, FIG. 18, read-out: concentration for 50% inhibition of TNF-α release (IC50)
  IC50: ~30 µM
[1]; at 500 μM, read-out: inhibitory effects, % of the maximal LPS stimulation (1428 pg/ml)
  inhibition at 500 µM: ~40%
stromelysin/PUMP-1
  PUMP-1 activity, % of control levels: 15%
[2]
  proliferative response of PBMC to allogeneic stimulation: showed dose-response activity
Murine B-cell
  inhibition of B-cell proliferation: inhibited B-cell proliferation
Balb/C mice; 5-FU treated mice, FIG. 14
  mouse survival, Kaplan-Meier plot: improved survival
Balb/C mice; animals that did not receive 5-FU
  rise in ANC and CFU-GM/femur associated with vehicle injections: prevented both the rise in ANC and rise in CFU-GM/femur
Balb/C mice; during hematopoietic recovery
  increase in the number of CFU-GM/femur compared to control animals: approximately two-fold
Balb/C mice; experiment 1, day 13, vs vehicle control and day 0 animals
  CFU-GM/femur: significantly more CFU-GM/femur on day 13
Balb/C mice; experiment 1, day 13 after 5-FU
  mean ±SD ANC: 440±17 /mm^3
Balb/C mice; experiment 1, days 6 and 10
  WBC of 5-FU treated mice: significantly lower in vehicle treated controls than in CT1501R treated mice
Balb/C mice; experiment 2
  number of cells per femur: increased during hematopoietic recovery compared to control animals
Balb/C mice; experiment 2, FIG. 10
  WBC: significantly higher WBC's
Balb/C mice; experiment 2, FIG. 11
  platelet count nadir and rate of recovery: increased compared to vehicle control animals
Balb/C mice; experiment 2, FIG. 12
  neutrophil recovery: accelerated
Balb/C mice; mice without 5-FU, i.p. bid
  WBC and ANC: remained within 1 SD of control values
  adverse effects: no apparent adverse effects

Source: patent US5567704A, “R-enatiomerically pure hydroxylated xanthine compounds to treat baldness” (priority 1995, dated 1996)
